Data reported in patent publication US6060597A, “Cyclic oligosaccharide, and an agent containing the same for preventing or treating retroviral diseases” (Kikkoman Corporation, priority 1997, dated 2000).

Assays:
[1] = target: binding of gp120 to CD4 receptor (HIV-1 M:B_HXB2R, UniProt P04578); test: inhibition of the binding of gp120 to CD4 receptor (drug discovery kit, duPont); conditions: concentration range of 0 to 100 mg/ml; FIG. 5
Protocol: Measurement of anti-HIV activity of sulfated CI-8
Sulfated CI-8 obtained above in Example 1 was examined for the activity of inhibiting the binding of gp120 to CD4 receptor in the concentration range of […] using a drug discovery kit (duPont).

fresh rat blood [2] = test: anticoagulation activity in fresh rat blood, microtiter plate, visual evaluation of serum separation; format: biochemical; conditions: citrated fresh rat blood, CaCl2-initiated, 15 minutes at room temperature; for anticoagulation activity: judged against 20 U/mg standard
Protocol: Anticoagulation activity of sulfated cyclic oligosaccharide
Sulfated CI-8 was examined for its anticoagulation activity. 1% aqueous sulfated CI-8 solution obtained by dissolving 10 mg of sulfated CI-8 sodium in 1 ml de-ionized water was diluted at various concentrations with 0.85% sterilized NaCl solution (physiological saline) to prepare sulfated CI-8 solutions at various concentrations. Solutions of dextran 5000 sodium sulfate (Wako Pure Chemical Industries, Ltd.) at various concentrations were also prepared in the same manner. Standard solutions at various concentrations were prepared using dextran sodium sulfate having 20 U/mg anticoagulation activity (a gift from Meito Sangyo K. K.).
40 μl each of the aqueous solutions were put to each well on a 96-well microtiter plate. Then, 50 μof fresh rat blood containing 0.38% trisodium citrate was put to each well and mixed. Further, 10 μl of 2% aqueous CaCl2 solution and mixed whereby blood-coagulation reaction was initiated. The plate was left at room temperature for 15 minutes and centrifuged at 2000 rpm for 10 minutes, and the separation of the serum in each well was visually evaluated. As a result, the anticoagulation activity of sulfated CI-8 was judged to be about 1/2 relative to the known dextran sodium sulfate, so its activity was judged to be about […]. The activity of dextran 5000 sodium sulfate was judged to be about 40 U/mg.

fresh rat blood [3] = conditions: stated activity of the standard substance (gift from Meito Sangyo K. K.); cited from earlier work

Row | Substance | activity of inhibiting the binding of gp120 to CD4 receptor [1] | anticoagulation activity (fresh rat blood [2]) | anticoagulation activity relative to the known dextran sodium sulfate (fresh rat blood [2]; relative to 20 U/mg standard) | anticoagulation activity of the standard (fresh rat blood [3])
1 | cyclic isomaltoctaose-heptadecyl-0-sulfate sodium salt [sulfated CI-8] | inhibited the binding of pg120 to CD4 in proportion to its concentration | about 10 U/ml | about 1/2 | –
2 | dextran 5000 sodium sulfate [reference compound] | – | about 40 U/mg | – | –
3 | dextran sodium sulfate | – | – | – | 20 U/mg
